This note sets out measurements from patent US10239861B2, “Therapeutic compounds and uses thereof” (GENENTECH, INC., priority 2015, dated 2019).

Molecules are shown by their SMILES.

Chain of PCAF bromodomain (His/Flag epitope tagged PCAF719-832) (Q92831 719-832): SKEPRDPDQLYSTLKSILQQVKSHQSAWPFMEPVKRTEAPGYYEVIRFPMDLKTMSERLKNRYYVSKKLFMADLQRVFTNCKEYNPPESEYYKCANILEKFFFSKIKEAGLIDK

The first assay concerns the target PCAF bromodomain (His/Flag epitope tagged PCAF719-832) (Homo sapiens (Human), UniProt Q92831). Description: PCAF AlphaLisa binding assay.
Conditions: not given
How it is done: IC50 Measurements for Inhibitors Using PCAF AlphaLisa Binding Assay
PCAF bromodomain binding and inhibition of the compounds disclosed herein was assessed by monitoring the engagement of biotinylated small molecule ligand (known to bind to the PCAF bromodomain) with the target using the AlphaLisa technology (Perkin-Elmer).
Background: Alpha assays give light when donor and acceptor beads are brought close together.
`Cn1ncc(NC2CN3CCC2CC3)c(Cl)c1=O` (racemic) [Example 10, (racemic)-4-chloro-2-methyl-5-(quinuclidin-3-ylamino)pyridazin-3(2H)-one] came in with an IC50 of 0.975 µM.

Still in this assay, the particulars now being: AlphaLisa; PCAF bromodomain 225 nM, biotinylated small molecule ligand 6 nM; read-out: PCAF IC50.
As to `CN1CCCCC(Nc2cnn(C)c(=O)c2Cl)C1` (racemic) [Example 1, 4-chloro-2-methyl-5-((1-methylazepan-3-yl)amino)pyridazin-3(2H)-one], the IC50 was 0.062 µM.

Consider `CN1CCCC(Nc2cnn(C)c(=O)c2Cl)CC1` (racemic) [Example 4, (racemic)-4-chloro-2-methyl-5-((1-methylazepan-4-yl)amino)pyridazin-3(2H)-one], for which the concentration for half-maximal inhibition (IC50) is 0.187 µM.

Take `Cn1ncc(NC2CCCOC2)c(Cl)c1=O` (racemic) [Example 11, (racemic)-4-chloro-2-methyl-5-((tetrahydro-2H-pyran-3-yl)amino)pyridazin-3(2H)-one]: the IC50 amounted to 1.02 µM.

With `CN1CC(Nc2cnn(C)c(=O)c2Cl)CC(c2ccccc2)C1` (racemic) [Example 24, 4-chloro-2-methyl-5-((1-methyl-5-phenylpiperidin-3-yl)amino)pyridazin-3(2H)-one], the IC50 is 0.167 µM.

Take `C[C@@H]1CC[C@@H](Nc2cnn(C)c(=O)c2Cl)CN1C` (stereo in doubt) [Example 26, 4-chloro-5-((1,6-dimethylpiperidin-3-yl)amino)-2-methylpyridazin-3(2H)-one]: the IC50 came out at 0.0348 µM.

Take `C[C@@H]1CC[C@H](Nc2cnn(C)c(=O)c2Cl)CN1C` (stereo in doubt) [Example 27, 4-chloro-5-((1,6-dimethylpiperidin-3-yl)amino)-2-methylpyridazin-3(2H)-one]: the half-maximal inhibitory concentration (IC50) was found to be 0.144 µM.

Take `C[C@@H]1CC[C@@H](Nc2cnn(C)c(=O)c2Cl)CN1C` (stereo in doubt) [Example 28, 4-chloro-5-((1,6-dimethylpiperidin-3-yl)amino)-2-methylpyridazin-3(2H)-one]: the IC50 was 0.175 µM.

Consider `C[C@H]1CC[C@@H](Nc2cnn(C)c(=O)c2Cl)CN1C` (stereo in doubt) [Example 29, 4-chloro-5-((1,6-dimethylpiperidin-3-yl)amino)-2-methylpyridazin-3(2H)-one], for which the IC50 is 0.0485 µM.

`CN1CCC(Nc2cnn(C)c(=O)c2Cl)CC1` [Example 2, 4-chloro-2-methyl-5-((1-methylpiperidin-4-yl)amino)pyridazin-3(2H)-one]: the IC50 was found to be 1.22 µM.

In the case of `CN1[C@@H]2CC[C@H]1C[C@@H](Nc1cnn(C)c(=O)c1Cl)C2` [Example 5, 4-chloro-2-methyl-5-(((1R,3r,5S)-8-methyl-8-azabicyclo[3.2.1]octan-3-yl)amino)pyridazin-3(2H)-one], the IC50 was found to be 0.48 µM.

With `CN1[C@@H]2CC[C@H]1C[C@H](Nc1cnn(C)c(=O)c1Cl)C2` [Example 6, 4-chloro-2-methyl-5-(((1R,3s,5S)-8-methyl-8-azabicyclo[3.2.1]octan-3-yl)amino)pyridazin-3(2H)-one], the half-maximal inhibitory concentration (IC50) was 0.492 µM.

Regarding `Cn1ncc(NC2CCCN(c3ccccn3)C2)c(Cl)c1=O` (centres unmarked) [Example 9, 4-chloro-2-methyl-5-((1-(pyridin-2-yl)piperidin-3-yl)amino)pyridazin-3(2H)-one], the half-inhibitory concentration (IC50) came out at 0.403 µM.

With `Cc1c(NC2CCCCN(C)C2)cnn(C)c1=O` (centres unmarked) [Example 12, 2,4-dimethyl-5-((1-methylazepan-3-yl)amino)pyridazin-3(2H)-one], the concentration for half-maximal inhibition (IC50) was determined as 0.165 µM.

In the case of `CN1CCCCC(Nc2cnn(C)c(=O)c2Br)C1` (centres unmarked) [Example 13, 4-bromo-2-methyl-5-((1-methylazepan-3-yl)amino)pyridazin-3(2H)-one], the half-maximal inhibitory concentration (IC50) is 0.051 µM.

Consider `CC(C)n1ncc(NC2CCCCN(C)C2)c(Cl)c1=O` (centres unmarked) [Example 14, 4-chloro-2-isopropyl-5-((1-methylazepan-3-yl)amino)pyridazin-3(2H)-one], for which the IC50 amounted to 1.09 µM.

For `CCn1ncc(NC2CCCCN(C)C2)c(Cl)c1=O` (centres unmarked) [Example 15, 4-chloro-2-ethyl-5-((1-methylazepan-3-yl)amino)pyridazin-3(2H)-one], the 50% inhibitory concentration (IC50) came out at 0.407 µM.

As usually defined, the IC50 is the midpoint of a concentration-inhibition curve.
